# From patent US4272437A, “Antibacterial agents, and 4-thio azetidinone intermediates” (priority 1979, dated 1981)
# Where two headings read alike, the source gives them in different places.
# Tests used:
# [1] = system: Pr. vulgaris A-9716; assay: MIC, tube dilution, Proteus vulgaris / Proteus mirabilis A9716; assay type: cell-based, Proteus vulgaris (name changed to Proteus mirabilis); settings: Proteus vulgaris, overnight 37° C.
# Source text: (§1) Representative compounds of the present invention were subjected to in vitro antibiotic screening against a variety of microorganisms.
# [2] = system: E. coli A-20341-1; assay: MIC, tube dilution, Escherichia coli A20341-1; assay type: cell-based
# Source text: as §1
# [3] = system: Staph. aureus A-9537; assay: MIC, tube dilution, Staphylococcus aureus A9537; assay type: cell-based; settings: overnight 37° C., Nutrient Broth; for MIC: Staphylococcus aureus, A9537, Staph. aureus A9537, read-out: Minimum Inhibitory Concentration (M.I.C.)
# Source text: as §1
# [4] = system: Ps. aeruginosa A-9843A; assay: MIC, tube dilution, Pseudomonas aeruginosa A9843A; assay type: cell-based; settings: overnight 37° C.; for MIC: Pseudomonas aeruginosa, A9843A, read-out: Minimum Inhibitory Concentration (M.I.C.), Pseudomonas aeruginosa A9843A
# Source text: as §1
# [5] = system: Klebsiella species A20468; assay: MIC, tube dilution, Klebsiella species A20468; assay type: cell-based; settings: Klebsiella species (K. pneumoniae) A20468, overnight 37° C.; for MIC: read-out: Minimum Inhibitory Concentration (M.I.C.)
# Source text: as §1
# [6] = system: Pr. mirabilis A-9900; assay: MIC, tube dilution, Proteus mirabilis A9900; assay type: cell-based; settings: overnight 37° C.; for MIC: Proteus mirabilis, A9900, Proteus mirabilis A9900, read-out: Minimum Inhibitory Concentration (M.I.C.)
# Source text: as §1
# [7] = system: Proteus rettgeri A21203; assay: MIC, tube dilution, Proteus rettgeri A21203; assay type: cell-based; settings: overnight 37° C.; for MIC: Providencia rettgeri, read-out: Minimum Inhibitory Concentration (M.I.C.)
# Source text: as §1
# [8] = system: K. pneumoniae A-15130; assay: MIC, tube dilution, Klebsiella pneumoniae A15130; assay type: cell-based; settings: overnight 37° C.; for MIC: Klebsiella pneumoniae, A15130, K. pneumoniae A15130, read-out: Minimum Inhibitory Concentration (M.I.C.)
# Source text: as §1
# [9] = system: Str. faecalis A-20688; assay: MIC, tube dilution, Streptococcus faecalis A20688; assay type: cell-based; settings: overnight 37° C.; for MIC: Enterococcus faecalis, A20688, Str. faecalis A20688, read-out: Minimum Inhibitory Concentration (M.I.C.)
# Source text: as §1
# [10] = system: Ent. cloacae A-9656; assay: MIC, tube dilution, Enterobacter cloacae A9656; assay type: cell-based; settings: overnight 37° C.; for MIC: read-out: Minimum Inhibitory Concentration (M.I.C.)
# Source text: as §1
# [11] = system: Staph. aureus (Meth-Res) A-15097; assay: MIC, tube dilution, Staphylococcus aureus A15097 (Meth-Res); assay type: cell-based; settings: overnight 37° C.; for MIC: Staphylococcus aureus
# Source text: as §1
# [12] = system: E. coli A-15119; assay: MIC, tube dilution, Escherichia coli A15119; assay type: cell-based; settings: overnight 37° C.; for MIC: Escherichia coli, A15119, E. coli A15119, read-out: Minimum Inhibitory Concentration (M.I.C.)
# Source text: as §1
# [13] = system: Ser. marcescens A-20019; assay: MIC, tube dilution, Serratia marcescens A20019; assay type: cell-based; settings: overnight 37° C.; for MIC: Serratia marcescens, A20019, Serratia marcescens A20019, read-out: Minimum Inhibitory Concentration (M.I.C.)
# Source text: as §1
# [14] = system: Pr. morganii A-15153; assay: MIC, tube dilution, Proteus morganii A15153; assay type: cell-based; settings: overnight 37° C.; for MIC: Morganella morganii, A15153, Proteus morganii A15153, read-out: Minimum Inhibitory Concentration (M.I.C.)
# Source text: as §1
# [15] = system: Str. pyogenes A-9604; assay: MIC, tube dilution, Streptococcus pyogenes A9604; assay type: cell-based; settings: overnight 37° C., Nutrient Broth; for MIC: Streptococcus pyogenes, A9604, Str. pyogenes A9604, read-out: Minimum Inhibitory Concentration (M.I.C.)
# Source text: as §1
# [16] = system: Staph. aureus A-9537 and 50% serum; assay: MIC, tube dilution, Staph. aureus A9537 + 50% serum; assay type: cell-based, Staphylococcus aureus; settings: overnight 37° C.; for MIC: Staphylococcus aureus, read-out: Minimum Inhibitory Concentration (M.I.C.)
# Source text: as §1
# [17] = system: Ent. cloacae A-9659; assay: MIC, tube dilution, Enterobacter cloacae A9659; assay type: cell-based; settings: overnight 37° C.; for MIC: Enterobacter cloacae, A9659, Enterobacter cloacae A9659, read-out: Minimum Inhibitory Concentration (M.I.C.)
# Source text: as §1
# [18] = system: Str. pneumoniae A-9585; assay: MIC, tube dilution, Streptococcus pneumoniae A9585; assay type: cell-based; settings: overnight 37° C., Nutrient Broth; for MIC: Streptococcus pneumoniae, A9585, Str. pneumoniae A9585, read-out: Minimum Inhibitory Concentration (M.I.C.)
# Source text: as §1
# [19] = system: Staph. aureus (Pen-Res) A-9606; assay: MIC, tube dilution, Staphylococcus aureus A9606 (Pen-Res); assay type: cell-based; settings: overnight 37° C.; for MIC: Staphylococcus aureus
# Source text: as §1
# [20] = system: Ps. aeruginosa A-21213; assay: MIC, tube dilution, Pseudomonas aeruginosa A21213; assay type: cell-based; settings: overnight 37° C.; for MIC: read-out: Minimum Inhibitory Concentration (M.I.C.)
# Source text: as §1
# [21] = system: Proteus vulgaris A21559; assay: MIC, tube dilution, Proteus vulgaris A21559; assay type: cell-based; settings: overnight 37° C.
# Source text: as §1
# [22] = A9716, Proteus vulgaris / Proteus mirabilis A9716, read-out: Minimum Inhibitory Concentration (M.I.C.)
# [23] = Escherichia coli, A203411; E. coli A20341-1; overnight 37° C.; read-out: Minimum Inhibitory Concentration (M.I.C.)
# [24] = A21203, Proteus rettgeri A21203
# [25] = read-out: Minimum Inhibitory Concentration (M.I.C.), Staph. aureus A15097 (Meth-Res)
# [26] = Staph. aureus A9606 (Pen-Res), read-out: Minimum Inhibitory Concentration (M.I.C.)
# [27] = read-out: Minimum Inhibitory Concentration (M.I.C.), Staph. aureus A9606 (Pen-Res)
# [28] = Escherichia coli, A203411, E. coli A20341-1; overnight 37° C.; read-out: Minimum Inhibitory Concentration (M.I.C.)
# [29] = Enterobacter cloacae, A9656, Enterobacter cloacae A9656
# [30] = Staph. aureus A15097 (Meth-Res), read-out: Minimum Inhibitory Concentration (M.I.C.)
# [31] = Pseudomonas aeruginosa, A21213, Pseudomonas aeruginosa A21213
Compound,"MIC [1, 22] [µg/mL]","MIC [2, 23] [µg/mL]",MIC [3] [µg/mL],MIC [4] [µg/mL],MIC [5] [µg/mL],MIC [6] [µg/mL],"MIC [7, 24] [µg/mL]",MIC [8] [µg/mL],MIC [9] [µg/mL],MIC ([10]; Enterobacter cloacae A9656) [µg/mL],"MIC [11, 25] [µg/mL]",MIC [12] [µg/mL],MIC [13] [µg/mL],MIC [14] [µg/mL],MIC [15] [µg/mL],MIC [16] [µg/mL],MIC [17] [µg/mL],MIC [18] [µg/mL],"MIC [19, 26] [µg/mL]",MIC ([20]; Pseudomonas aeruginosa A21213) [µg/mL],further results
"CC(C)(C)CC1=C(C(=O)O)N2C(=O)CC2S1 (stereo not drawn) [Preparation 23, 2-(2',2'-Dimethylpropyl)penem-3-carboxylate]",4,> 125,0.25,> 125,> 125,2,32,125,> 125,> 125,125,16,125,63,0.25,> 63,125,0.25,32,> 125,–
"CON=C(C)CC1=C(C(=O)O)N2C(=O)CC2S1 (stereo not drawn) [Example 44, Sodium 2-(Acetonylmethyl oxime)-penem-3-carboxylate]",63,> 125,32,125,> 125,63,–,> 125,125,> 125,> 125,63,> 125,125,16,> 63,> 125,2,–,125,"MIC ([7]; Proteus rettgeri A21203): 125 µg/mL; MIC [19, 27]: > 125 µg/mL"
"O=C(O)C1=C(C(F)(F)F)SC2CC(=O)N12 (stereo not drawn) [Example 17, Sodium 2-Trifluoromethylpenem-3-carboxylate]",–,> 125,> 8,125,> 125,> 125,–,> 125,> 125,> 125,> 125,125,> 125,> 125,> 8,> 63,> 125,> 8,–,125,"MIC ([1]; A9716, read-out: Minimum Inhibitory Concentration (M.I.C.), Proteus vulgaris / Proteus mirabilis A9716): > 125 µg/mL; MIC ([7]; Proteus rettgeri A21203): 125 µg/mL; MIC [19, 27]: > 125 µg/mL"
"O=C(O)C1=CSC2CC(=O)N12 (stereo not drawn) [Example 19, Penem-3-carboxylic Acid]",16,–,4,63,> 125,16,16,16,125,–,–,8,16,16,2,63,16,0.5,8,–,"MIC [2, 28]: 16 µg/mL; MIC [10, 29]: 16 µg/mL; MIC [11, 30]: 63 µg/mL; MIC [20, 31]: 125 µg/mL"
"CC1(CC2=C(C(=O)O)N3C(=O)CC3S2)OCCO1 (stereo not drawn) [Preparation 22, 2-(Acetonyl-ethylene-ketal)penem-3-carboxylic Acid]",4,125,0.5,125,125,16,16,32,125,–,> 125,–,63,8,0.25,32,63,0.13,32,125,"MIC [10, 29]: 63 µg/mL"
"Nc1ccccc1CC1=C(C(=O)O)N2C(=O)CC2S1 (stereo not drawn) [Example 45, Sodium 2-(2'-Aminophenyl)methylpenem-3-carboxylate]",63,125,1,125,125,32,63,125,125,125,125,125,125,125,1,63,125,0.5,4,125,–
"NCCCCCC1=C(C(=O)O)N2C(=O)C[C@H]2S1 [Example 102, (5R) 2-(5'-aminopentyl)-penem-3-carboxylic acid]",–,–,–,–,–,–,–,–,–,–,–,–,–,–,–,–,–,–,–,–,Minimum Inhibitory Concentration (M.I.C.) ([2]; E. coli A20341-1; overnight 37° C.): 16 µg/mL; Minimum Inhibitory Concentration (M.I.C.) ([3]; Staph. aureus A9537): .03 µg/mL; Minimum Inhibitory Concentration (M.I.C.) ([4]; Pseudomonas aeruginosa A9843A): 8 µg/mL; Minimum Inhibitory Concentration (M.I.C.) [5]: > 63 µg/mL; Minimum Inhibitory Concentration (M.I.C.) ([6]; Proteus mirabilis A9900): 2 µg/mL; Minimum Inhibitory Concentration (M.I.C.) ([7]; Proteus rettgeri A21203): 2 µg/mL; Minimum Inhibitory Concentration (M.I.C.) ([8]; K. pneumoniae A15130): 2 µg/mL; Minimum Inhibitory Concentration (M.I.C.) ([9]; Str. faecalis A20688): 4 µg/mL; Minimum Inhibitory Concentration (M.I.C.) ([10]; Enterobacter cloacae A9656): 2 µg/mL; Minimum Inhibitory Concentration (M.I.C.) ([11]; Staph. aureus A15097 (Meth-Res)): 8 µg/mL; Minimum Inhibitory Concentration (M.I.C.) ([12]; E. coli A15119): 1 µg/mL; Minimum Inhibitory Concentration (M.I.C.) ([13]; Serratia marcescens A20019): 2 µg/mL; Minimum Inhibitory Concentration (M.I.C.) ([14]; Proteus morganii A15153): 2 µg/mL; Minimum Inhibitory Concentration (M.I.C.) ([21]; Proteus vulgaris A21559): 16 µg/mL; Minimum Inhibitory Concentration (M.I.C.) ([15]; Str. pyogenes A9604): .016 µg/mL; Minimum Inhibitory Concentration (M.I.C.) [16]: .25 µg/mL; Minimum Inhibitory Concentration (M.I.C.) ([17]; Enterobacter cloacae A9659): 4 µg/mL; Minimum Inhibitory Concentration (M.I.C.) ([18]; Str. pneumoniae A9585): .008 µg/mL; Minimum Inhibitory Concentration (M.I.C.) ([19]; Staph. aureus A9606 (Pen-Res)): 2 µg/mL; Minimum Inhibitory Concentration (M.I.C.) ([20]; Pseudomonas aeruginosa A21213): > 63 µg/mL
"NCc1ccc(CC2=C(C(=O)O)N3C(=O)CC3S2)cc1 (stereo not drawn) [Example 85, 2-(p-Aminomethylbenzyl)penem-3-carboxylic Acid]",–,–,0.06,8,> 63,4,4,32,16,–,–,4,4,4,0.06,1,8,0.06,16,–,"MIC [2, 28]: 63 µg/mL; MIC [10, 29]: 8 µg/mL; MIC [11, 30]: > 63 µg/mL; MIC ([21]; Proteus vulgaris, A21559, Proteus vulgaris A21559, read-out: Minimum Inhibitory Concentration (M.I.C.)): > 63 µg/mL; MIC [20, 31]: 63 µg/mL"
